From PubChem BioAssay AID385 (SGCOxCompounds, 2006)

Target: Casein kinase I isoform gamma-3 (Homo sapiens) (UniProt Q9Y6M4)
Experiment: ligand binding to human CK1 gamma-3 kinase – biophysical, DSF, SYPRO orange, recombinant protein (AID 385)
Settings: recombinant CSNK1G3, DSF thermal shift, at 10 µM, protein 2 µM, buffer 10 mM HEPES, pH 7.5, NaCl 150 mM, hits give high values

Casein kinase I isoform gamma-3 (Homo sapiens), sequence (Q9Y6M4 whole entry, looked up, canonical isoform): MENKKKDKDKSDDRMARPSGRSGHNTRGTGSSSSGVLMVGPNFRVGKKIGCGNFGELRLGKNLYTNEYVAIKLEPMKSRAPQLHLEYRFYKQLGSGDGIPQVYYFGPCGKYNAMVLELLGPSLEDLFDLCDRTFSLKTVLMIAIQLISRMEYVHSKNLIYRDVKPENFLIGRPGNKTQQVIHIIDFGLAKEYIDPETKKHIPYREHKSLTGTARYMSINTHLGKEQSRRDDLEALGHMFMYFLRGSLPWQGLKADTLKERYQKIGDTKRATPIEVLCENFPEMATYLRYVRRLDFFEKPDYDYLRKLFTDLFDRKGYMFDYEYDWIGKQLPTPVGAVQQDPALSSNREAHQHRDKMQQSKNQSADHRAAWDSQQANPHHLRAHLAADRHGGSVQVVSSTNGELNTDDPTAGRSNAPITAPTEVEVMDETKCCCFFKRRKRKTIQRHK

SMILES | Tm shift [C]
Nc1nc(Nc2ccc(F)cc2)sc1C(=O)c1ccccc1 | 3.5
NC(=O)c1ccc(-c2nc(-c3ccc4c(c3)OCCO4)c(-c3ccccn3)[nH]2)cc1 | 6.7
O=c1[nH]c(O)c2c1c1c3ccccc3nc1n1cncc21 | 3.5
Nc1nc(Nc2cccc(Cl)c2)sc1C(=O)c1ccc(F)cc1 | 4.8
Nc1nc(Nc2ccccc2)sc1C(=O)c1ccc(F)cc1 | 3.3
O=Nc1c(-c2c(O)[nH]c3ccc(S(O)(O)O)cc23)[nH]c2ccccc12 | 3.8
CC(C)n1cnc2c(Nc3cccc(Cl)c3)nc(NCCO)nc21 | 7
NC1=N/C(=C2/CCNC(=O)c3[nH]c(Br)cc32)C(=O)N1 | 3.5
Nc1nc(Nc2ccccc2F)sc1C(=O)c1ccc(Br)cc1 | 3.4
COc1ccc(Nc2nc(N)c(C(=O)c3ccc(OC)cc3)s2)cc1 | 4.9
Nc1nc(Nc2ccc(S(N)(=O)=O)cc2)nn1C(=S)Nc1c(F)cccc1F | 5.4
CCN(CC)CCNC(=O)c1c(C)[nH]c(/C=C2\C(=O)Nc3ccc(Cl)cc32)c1C | 4
N#C/C(=C1\Nc2ccccc2S1)c1ccnc(NCCc2cccnc2)n1 | 3.5
CSc1nc(-c2ccnc(NC(C)c3ccccc3)c2)c(-c2ccc(F)cc2)[nH]1 (stereo unspecified) | 3.5
CCn1cnc2c(Nc3cccc(Cl)c3)nc(N[C@@H]3CCCC[C@@H]3N)nc21 | 5.5
COc1ccc(Nc2nc(N)c(C(=O)c3ccc(Cl)cc3)s2)cc1 | 3.1
